Numbers after ± are expanded uncertainties.
Experiment: cn = amount concentration of the nth substance listed, in mol/dm3
Conditions: 303.15 K; 101 kPa; Liquid; 4510 conductivity meter (Jenway, UK); c1 = 0.0005258

electrical conductivity: 0.000611 ± 0.0002 S/m
Structure (SMILES): CC1=C(C(=O)O)N2C(=O)[C@@H](NC(=O)[C@H](N)C3=CCC=CC3)[C@H]2SC1 [Cefradin] + O
